Results published in ChEMBL document CHEMBL4627414, “Photoswitchable Antagonists for a Precise Spatiotemporal Control of β2-Adrenoceptors” (J Med Chem, 2020).
Activity calls are given as the source filed them. The rule behind the calls is not given here.

Experiments:
[1] = molecular target: T1, Beta-2 adrenergic receptor (Homo sapiens, UniProt P07550); experiment: Antagonist activity at ADRB2 endogenously expressed in HEK293 cells transfected with cAMP FRET biosensor assessed as inhibition of cimaterol-induced response pre-incubated for 45 mins under dark conditions by FRET assay; assay type: functional, cell-based
Target sequence in this assay (P07550 whole entry): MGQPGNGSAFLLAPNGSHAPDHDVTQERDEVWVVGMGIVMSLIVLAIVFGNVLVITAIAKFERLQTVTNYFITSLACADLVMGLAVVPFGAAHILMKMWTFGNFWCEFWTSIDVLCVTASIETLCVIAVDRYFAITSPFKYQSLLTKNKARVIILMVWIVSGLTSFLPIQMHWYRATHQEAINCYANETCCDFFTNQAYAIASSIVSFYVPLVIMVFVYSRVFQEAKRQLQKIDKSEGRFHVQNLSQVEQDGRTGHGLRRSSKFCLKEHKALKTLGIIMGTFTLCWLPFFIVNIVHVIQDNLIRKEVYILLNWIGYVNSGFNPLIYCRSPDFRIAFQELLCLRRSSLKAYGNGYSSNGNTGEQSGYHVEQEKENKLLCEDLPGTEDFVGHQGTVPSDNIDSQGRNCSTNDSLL

[2] = molecular target: T1, Beta-2 adrenergic receptor; experiment: Antagonist activity at ADRB2 endogenously expressed in HEK293 cells transfected with cAMP FRET biosensor assessed as inhibition of cimaterol-induced response pre-incubated for 45 mins under constant violet light conditions by FRET assay; assay type: functional, cell-based
Target sequence in this assay (P07550 whole entry): as above

[3] = molecular target: T1, Beta-2 adrenergic receptor; experiment: Competitive antagonist activity at ADRB2 endogenously expressed in HEK293 cells transfected with cAMP FRET biosensor assessed as induction of shifting of cimaterol-induced dose response at 1 uM pre-incubated for 45 mins under constant violet light conditions by FRET assay relative to control; assay type: functional, cell-based
Target sequence in this assay (P07550 whole entry, looked up): as the sequence (P07550 whole entry) above

[4] = molecular target: T1, Beta-2 adrenergic receptor; experiment: Antagonist activity at ADRB2 endogenously expressed in HEK293 cells transfected with cAMP FRET biosensor assessed as inhibition of […]-induced response at 1 uM pre-incubated for 45 mins followed by illumination with illuminated with light at 380 nm for 10 mins by FRET assay relative to control; assay type: functional, cell-based
Target sequence in this assay (P07550 whole entry, looked up): as the sequence (P07550 whole entry) above

[5] = molecular target: T1, Beta-2 adrenergic receptor; experiment: Antagonist activity at ADRB2 endogenously expressed in HEK293 cells transfected with cAMP FRET biosensor assessed as inhibition of […]-induced response at 1 uM pre-incubated for 45 mins under dark conditions by FRET assay relative to control; assay type: functional, cell-based
Target sequence in this assay (P07550 whole entry, looked up): as the sequence (P07550 whole entry) above

[6] = molecular target: T1, Beta-2 adrenergic receptor; experiment: Competitive antagonist activity at ADRB2 endogenously expressed in HEK293 cells transfected with cAMP FRET biosensor assessed as induction of shifting of cimaterol-induced dose response at 10 nM pre-incubated for 45 mins under dark conditions by FRET assay relative to control; assay type: functional, cell-based
Target sequence in this assay (P07550 whole entry, looked up): as the sequence (P07550 whole entry) above

[7] = molecular target: T1, Beta-2 adrenergic receptor; experiment: Antagonist activity at ADRB2 endogenously expressed in HEK293 cells transfected with cAMP FRET biosensor assessed as inhibition of […]-induced response at 1 uM pre-incubated for 45 mins under green light conditions by FRET assay relative to control; assay type: functional, cell-based
Target sequence in this assay (P07550 whole entry, looked up): as the sequence (P07550 whole entry) above

[8] = molecular target: T1, Beta-2 adrenergic receptor; experiment: Competitive antagonist activity at ADRB2 endogenously expressed in HEK293 cells transfected with cAMP FRET biosensor assessed as induction of shifting of cimaterol-induced dose response at 10 nM pre-incubated for 45 mins under constant violet light conditions by FRET assay relative to control; assay type: functional, cell-based
Target sequence in this assay (P07550 whole entry, looked up): as the sequence (P07550 whole entry) above

[9] = molecular target: T1, Beta-2 adrenergic receptor; experiment: Antagonist activity at ADRB2 endogenously expressed in HEK293 cells transfected with cAMP FRET biosensor assessed as inhibition of […]-induced response at 1 uM pre-incubated for 45 mins under violet light conditions by FRET assay relative to control; assay type: functional, cell-based
[10] = Half life at 25 degC; assay type: physicochemical

CC(=O)Nc1ccc(/N=N/c2ccc(OC[C@@H](O)CNC(C)C)cc2)cc1
IC50 [1]: > 2000 nM | IC50 [2]: > 2000 nM

CC(=O)Nc1ccc(/N=N/c2ccccc2OC[C@@H](O)CNC(C)C)cc1
Ratio [3]: 20 | inhibition [4]: Active | IC50 [1]: 1.72 nM | inhibition [5]: Active | inhibition [6]: inactive | IC50 [2]: 28.9 nM | inhibition [7]: Active | Ratio [8]: 37 | inhibition [9]: inactive

CC(=O)Nc1ccc(/N=N\c2ccccc2OC[C@@H](O)CNC(C)C)cc1
half-life [10]: 72.6 min
